For this test, the target named is T1, full length active recombinant SYK enzyme (Homo sapiens, UniProt P43405).
T1 construct: full length active recombinant SYK enzyme (Millipore, Calif.); purchased Millipore
Nature of the test: Inhibition of Syk tyrosine phosphorylation activity (LANCE TR-FRET kinase assay). In kind it is biochemical. As to conditions: 1 nM SYK, 550 nM substrate, 100 μM ATP, 1 hour room temperature.
The IC50 is the concentration that inhibits the measured activity by half. As to `NC(=O)c1cnc(N[C@H](C2CC2)C2(N)CC2)nc1Nc1ccc(F)cc1` [Example 170, (R)-2-(1-(1-aminocyclopropyl)(cyclopropyl)methylamino)-4-(4-fluorophenylamino)pyrimidine-5-carboxamide], the IC50 fell in the range of 100 to 1000 nM. In the case of `Cn1ccc2c(Nc3nc(N[C@@H]4CCNC4)ncc3C(N)=O)cccc21` [Example 212, (R)-4-((1-methyl-1H-indol-4-yl)amino)-2-(pyrrolidin-3-ylamino)pyrimidine-5-carboxamide], the 50% inhibitory concentration (IC50) was in the range of 10 to 100 nM. The same measure for `Cc1ccc(Nc2nc(NC[C@H](C)N)ncc2C(N)=O)cc1` [Example 207]: 100 to 1000 nM; for `CNC(=O)[C@@H]1CC[C@@H](Nc2ncc(C(N)=O)c(Nc3cccc(C)c3)n2)[C@@H](N)C1` (racemic) [Example 189, 2-((1R,2S,4R)-2-amino-4-(methylcarbamoyl)cyclohexylamino)-4-(m-tolylamino)pyrimidine-5-carboxamide]: 1 to 10 nM. The same measure for `NC(=O)c1cnc(NC[C@@H](N)CC(F)F)nc1Nc1cccc2c1ccn2CC(F)(F)F` [Example 84, (S)-2-(2-amino-4,4-difluorobutylamino)-4-(1-(2,2,2-trifluoroethyl)-1H-indol-4-ylamino)pyrimidine-5-carboxamide]: 1 to 10 nM. Consider `COc1ccc(Nc2ncc(C(N)=O)c(NC3CCC(N)CC3)n2)cn1` (stereo in doubt) [Example 248, 4-(trans-4-aminocyclohexylamino)-2-(6-methoxypyridin-3-ylamino)pyrimidine-5-carboxamide], for which the IC50 was in the range of 100 to 1000 nM.

In the case of `NC(=O)c1cnc(N[C@@H]2CCCC(F)(F)[C@@H]2N)nc1Nc1cccc(Cl)c1` [Example 28, 2-(((1R,2R)-2-amino-3,3-difluorocyclohexyl)amino)-4-((3-chlorophenyl)amino)pyrimidine-5-carboxamide], the half-maximal inhibitory concentration (IC50) lay in the range of 10 to 100 nM. The same measure for `CN1CCc2c(Nc3nc(NC[C@@H](N)CC(F)F)ncc3C(N)=O)cccc21` [Example 98, (S)-2-(2-amino-4,4-difluorobutylamino)-4-(1-methylindolin-4-ylamino)pyrimidine-5-carboxamide]: 10 to 100 nM; for `COc1ccc(Nc2ncc(C(N)=O)c(N[C@H]3CC[C@H](N)CC3)n2)cc1` [Example 245, 4-(trans-4-aminocyclohexylamino)-2-(4-methoxyphenylamino)pyrimidine-5-carboxamide]: 100 to 1000 nM. For `N#Cc1cccc(Nc2nc(NC[C@@H](N)CC(F)F)ncc2C(N)=O)c1` [Example 82, (S)-2-(2-amino-4,4-difluorobutylamino)-4-(3-cyanophenylamino)pyrimidine-5-carboxamide], the IC50 was in the range of 100 to 1000 nM. The same measure for `NC(=O)c1cnc(N[C@H]2CN[C@@H](CF)C2)nc1Nc1cccc(-n2nccn2)c1` [Example 229, 4-((3-(2H-1,2,3-triazol-2-yl)phenyl)amino)-2-(((3R,5R)-5-(fluoromethyl)pyrrolidin-3-yl)amino)pyrimidine-5-carboxamide]: 100 to 1000 nM; for `NC(=O)c1cnc(N[C@@H]2CCNC2)nc1Nc1ccc2ncccc2c1` [Example 214, (R)-2-(pyrrolidin-3-ylamino)-4-(quinolin-6-ylamino)pyrimidine-5-carboxamide]: 10 to 100 nM. The same measure for `Cc1cncc(Nc2nc(N[C@@H]3CCCC[C@@H]3N)ncc2C(N)=O)c1` [Example 46, 2-(((1R,2S)-2-aminocyclohexyl)amino)-4-((5-methylpyridin-3-yl)amino)pyrimidine-5-carboxamide]: 10 to 100 nM; for `C[C@@H](Nc1ncc(C(N)=O)c(Nc2cccc(-n3cccn3)c2)n1)C1(N)CC1` [Example 143, (R)-4-(3-(1H-pyrazol-1-yl)phenylamino)-2-(1-(1-aminocyclopropyl)ethylamino)pyrimidine-5-carboxamide]: 1 to 10 nM.

For the molecule `NC(=O)c1cnc(N[C@H]2CCCC(F)(F)[C@H]2N)nc1Nc1cccc(-n2nccn2)c1` [Example 19], the half-maximal inhibitory concentration (IC50) was in the range of 100 to 1000 nM.

For the molecule `NC(=O)c1cnc(N[C@@H]2CCCC(F)(F)[C@@H]2N)nc1Nc1cnc2ccccc2c1` [Example 168, 2-((1R,2R)-2-amino-3,3-difluorocyclohexylamino)-4-(quinolin-3-ylamino)pyrimidine-5-carboxamide], the concentration for half-maximal inhibition (IC50) lay in the range of 100 to 1000 nM.

With `NC(=O)c1cnc(N[C@H](C2CC2)C2(N)CC2)nc1Nc1cccc(-c2ncccn2)c1` [Example 135, (R)-2-(1-(1-aminocyclopropyl)(cyclopropyl)methylamino)-4-(3-(pyrimidin-2-yl)phenylamino)pyrimidine-5-carboxamide], the IC50 was in the range of 1 to 10 nM. With `NC(=O)c1cnc(N[C@@H]2CCOC[C@@H]2N)nc1Nc1ccc(Cl)cc1` [Example 51, 2-(((3R,4R)-3-aminotetrahydro-2H-pyran-4-yl)amino)-4-((4-chlorophenyl)amino)pyrimidine-5-carboxamide], the IC50 lay in the range of 10 to 100 nM. The same measure for `Cc1cccc(Nc2nc(NC3(CN)CC3)ncc2C(N)=O)c1` [Example 117, 4-(m-toluidino)-2-(1-(aminomethyl)cyclopropylamino)pyrimidine-5-carboxamide]: 10 to 100 nM.

As to `NC(=O)c1cnc(N[C@@H]2CCNC2)nc1Nc1cccc(-n2nccn2)c1` [Example 221, (R)-4-(3-(2H-1,2,3-triazol-2-yl)phenyeamino)-2-(pyrrolidin-3-ylamino)pyrimidine-5-carboxamide], the IC50 fell in the range of 1 to 10 nM. For `Cc1cccc(Nc2nc(N[C@H]3[C@@H](N)CCCC3(F)F)ncc2C(N)=O)c1` [Example 39, 2-(((1S,6S)-6-amino-2,2-difluorocyclohexyl)amino)-4-(m-tolylamino)pyrimidine-5-carboxamide], the concentration for half-maximal inhibition (IC50) was 10 to 100 nM. The figure for `Cc1csc(Nc2nc(N[C@H](CC(C)C)C(N)=O)ncc2C(N)=O)c1` [Example 194, (R)-2-(1-amino-4-methyl-1-oxopentan-2-ylamino)-4-(4-methylthiophen-2-ylamino)pyrimidine-5-carboxamide] is 10 to 100 nM; for `CC[C@H](Nc1ncc(C(N)=O)c(Nc2cccc(C)c2)n1)C1(N)CC1` [Example 128, (S)-2-(1-(1-aminocyclopropyl)propylamino)-4-(m-tolylamino)pyrimidine-5-carboxamide] it is 100 to 1000 nM.

On to `NC(=O)c1cnc(N[C@H](C2CC2)C2(N)CC2)nc1Nc1ccc2c(c1)CCCN2` [Example 153, (R)-2-(1-(1-aminocyclopropyl)(cyclopropyl)methylamino)-4-(1,2,3,4-tetrahydroquinolin-6-ylamino)pyrimidine-5-carboxamide], for which the half-maximal inhibitory concentration (IC50) lay within 10 to 100 nM. The figure for `Cc1cccc(Nc2ncc(C(N)=O)c(NC3CCC(N)CC3)n2)c1` (stereo in doubt) [Example 246, 4-(trans-4-aminocyclohexylamino)-2-(m-tolylamino)pyrimidine-5-carboxamide] is 10 to 100 nM. The figure for `CC(NC1CCCC[C@H]1Nc1ncc(C(N)=O)c(Nc2cccc(-n3nccn3)c2)n1)N[C@H]1CCCC[C@H]1Nc1ncc(C(N)=O)c(Nc2cccc(-n3nccn3)c2)n1` (stereo partly drawn) [Example 15, 2,2′-(1R,1′R,2S,2′S)-2,2′-(ethane-1,1-diylbis(azanediyl))bis(cyclohexane-2,1-diyl)bis(azanediyl)bis(4-(3-(2H-1,2,3-triazol-2-yl)phenylamino)pyrimidine-5-carboxamide)] is 100 to 1000 nM; for `NC(=O)c1cnc(NC2CCCc3cccnc32)nc1Nc1cccc(-n2nccn2)c1` (racemic) [Example 18, 4-(3-(2H-1,2,3-triazol-2-yl)phenylamino)-2-(5,6,7,8-tetrahydroquinolin-8-ylamino)pyrimidine-5-carboxamide] it is 100 to 1000 nM; for `NC(=O)c1cnc(N[C@@H]2CCCC(F)(F)[C@@H]2N)nc1Nc1csc2ncccc12` [Example 31, 2-(((1R,2R)-2-amino-3,3-difluorocyclohexyl)amino)-4-(thieno[2,3-b]pyridin-3-ylamino)pyrimidine-5-carboxamide] it is 10 to 100 nM. With `CC[C@@H](Nc1ncc(C(N)=O)c(Nc2cccc(C3=NCCCN3)c2)n1)C1(N)CC1` [Example 133, (R)-2-(1-(1-aminocyclopropyl)propylamino)-4-(3-(1,4,5,6-tetrahydropyrimidin-2-yl)phenylamino)pyrimidine-5-carboxamide], the IC50 lay in the range of 100 to 1000 nM. Regarding `Cn1ccc2c(Nc3nc(NCC4CCCC4)ncc3C(N)=O)cccc21` [Example 111, 2-(cyclopentylmethylamino)-4-(1-methyl-1H-indol-4-ylamino)pyrimidine-5-carboxamide], the IC50 lay in the range of 100 to 1000 nM. The figure for `NC(=O)c1cnc(N[C@H]2[C@@H](N)CCCC2(F)F)nc1Nc1cnn2ccccc12` [Example 37, 2-(((1S,6S)-6-amino-2,2-difluorocyclohexyl)amino)-4-(pyrazolo[1,5-a]pyridin-3-ylamino)pyrimidine-5-carboxamide] is 10 to 100 nM; for `CCn1ccc2c(Nc3nc(N[C@@H](CN)C4CC4)ncc3C(N)=O)cccc21` [Example 88, (R)-2-(2-amino-1-cyclopropylethylamino)-4-(1-ethyl-1H-indol-4-ylamino)pyrimidine-5-carboxamide] it is 1 to 10 nM.

As to `CCn1ccc2c(Nc3nc(NC[C@@H](N)CC(F)F)ncc3C(N)=O)cccc21` [Example 76, (S)-2-(2-amino-4,4-difluorobutylamino)-4-(1-ethyl-1H-indol-4-ylamino)pyrimidine-5-carboxamide], the IC50 is 1 to 10 nM.

Turning to `NC(=O)c1cnc(N[C@@H]2CCCC[C@@H]2NCCO)nc1Nc1cccc(-n2nccn2)c1` [Example 12, 4-(3-(2H-1,2,3-triazol-2-yl)phenylamino)-2-((1R,2S)-2-(2-hydroxyethylamino)cyclohexylamino)pyrimidine-5-carboxamide], the 50% inhibitory concentration (IC50) was 100 to 1000 nM. Consider `NC(=O)c1cnc(N[C@@H]2CCCC(F)(F)[C@@H]2N)nc1Nc1ccc2scnc2c1` [Example 30, 2-(((1R,2R)-2-amino-3,3-difluorocyclohexyl)amino)-4-(benzo[d]thiazol-5-ylamino)pyrimidine-5-carboxamide], for which the IC50 fell in the range of 100 to 1000 nM.

(Values after US20140323418A1, “SELECTIVE KINASE INHIBITORS” (PORTOLA PHARMACEUTICALS, INC., priority 2011, published 2014).)
